For 16 molecules, melting point results are on record in patent publication US7579487B2 (dated 2009).

For the molecule `CC(C)=C(NS(=O)(=O)c1ccc(C)cc1)C(=O)O`, the melting point was 188.5 to 189.5 °C.
`COc1ccc(S(=O)(=O)NC(C(=O)O)=C(C)C)cc1` returned a melting point of 162.5 to 163.5 °C.
For `CC(C)=C(NS(=O)(=O)c1ccc(F)cc1)C(=O)O`, the melting point lay within 172 to 173 °C.
In the case of `CC(C)=C(NS(=O)(=O)Cc1ccccc1)C(=O)O` it was 194 to 195 °C; in that of `CC(C)=C(NS(=O)(=O)CCCc1ccccc1)C(=O)O`, 104.5 to 106 °C.
With `Cc1ccc(S(=O)(=O)NC(C(=O)O)=C2CCCCC2)cc1` the figure was 221 to 222 °C.
With `O=C(O)C(NS(=O)(=O)c1ccc(F)cc1)=C1CCCCC1` the figure was 214 to 215 °C.
`C/C=C(/NS(=O)(=O)c1ccc(C)cc1)C(=O)O` showed a melting point of 150.5 to 151.5 °C.
As to `Cc1ccc(S(=O)(=O)N/C(=C/C(C)C)C(=O)O)cc1`, the melting point fell in the range of 166.5 to 167.5 °C.
With `COc1ccc(S(=O)(=O)NC(C(=O)O)C(C)C)cc1` (stereo not shown) the figure was 116.5 to 117.5 °C.
`CC(C)[C@H](NS(=O)(=O)Cc1ccccc1)C(=O)O` yielded a melting point of 120 to 121.5 °C.
In the case of `CC(C)[C@H](NS(=O)(=O)CCCc1ccccc1)C(=O)O` it was 151 to 152 °C; in that of `Cc1ccc(S(=O)(=O)NC(C(=O)O)C2CCCCC2)cc1` (stereo not shown), 182 to 184 °C.
Consider `O=C(O)C(NS(=O)(=O)c1ccc(F)cc1)C1CCCCC1` (stereo not shown), for which the melting point was 143 to 145 °C.
Regarding `CCC(NS(=O)(=O)c1ccc(C)cc1)C(=O)O` (stereo not shown), the melting point was 133.5 to 135.5 °C.
In the case of `Cc1ccc(S(=O)(=O)NC(CC(C)C)C(=O)O)cc1` (stereo not shown) it was 122 to 123 °C.
